We go through 3 compounds from ChEMBL document CHEMBL1201862, “PubChem BioAssay data set” (2004).

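Test compounds were applied to cells in 96-well plates for 48 hours at 5 doses. Abbreviation: GI50, concentration required for 50% inhibition of growth.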 Active and inactive are the calls of the source. Cut-off read from the data, not from the text of the source: active = GI50 up to about 1.1 µM and inactive = higher. A value given as a limit tells only on which side of the number the result lay.

Some test systems named below: NCI-H522; MOLT-4; HCC 2998; OVCAR-3; NCI/ADR-RES; SNB-75; EKVX; KM12; SK-OV-3; NCI-H226; UACC-62; M14; T47D; COLO 205; LOX IMVI; SF-539; U-251; SK-MEL-2; Hs-578T; MDA-N.
Common to all, as to test: growth of human tumour cells (NCI), 48 h

Regarding `Nc1ncnc2c1nc(Cl)n2C1OC(CO)C(O)C1O` (stereo not given), the GI50 is 0.546 µM (active) in the test with NCI-H522; 0.474 µM (active) in the test on MOLT-4; 0.556 µM (active) in the test with HCC 2998; 2.75 µM (inactive) in the test with OVCAR-3; 1.41 µM (inactive) in the test with NCI/ADR-RES; 1.49 µM (inactive) in the test on SNB-75. The GI50 in the test with EKVX is 5.7 µM (inactive); in the test with KM12, 2.04 µM (inactive); in the test with SK-OV-3 it was 2.74 µM (inactive); in the test with NCI-H226, 1.63 µM (inactive); with UACC-62, 0.966 µM (active); in the test on M14, 0.9 µM (active). Also, the GI50 was 0.574 µM (active) in the test with T47D; 1.11 µM (active) in the test on COLO 205; 0.424 µM (active) with LOX IMVI; 4.69 µM (inactive) in the test on SF-539; 7.59 µM (inactive) with U-251; 2.02 µM (inactive) with SK-MEL-2. The values for the GI50 in the test on Hs-578T and in the test on MDA-N were 15.3 µM (inactive) and 2.94 µM (inactive), respectively.

On to `COc1ccc(/C=C2\CCC(C)C3=C2NC(=S)NC3c2ccc(OC)c(OC)c2)cc1OC` (stereo not given), for which the GI50 is > 100 µM (inactive) in the test with NCI-H522; 4.99 µM (inactive) in the test with MOLT-4; 74.1 µM (inactive) with HCC 2998; 24.4 µM (inactive) in the test on OVCAR-3; 27.5 µM (inactive) with NCI/ADR-RES; > 100 µM (inactive) with SNB-75. Further, the GI50 was 20.1 µM (inactive) in the test with EKVX; 12 µM (inactive) in the test with KM12; 29.9 µM (inactive) with SK-OV-3; > 78 µM (inactive) in the test on NCI-H226; 20.2 µM (inactive) in the test on UACC-62; 19.5 µM (inactive) with M14. Further, the GI50 with T47D is 2.33 µM (inactive); in the test on COLO 205, 8.59 µM (inactive); in the test with LOX IMVI, 17.4 µM (inactive); in the test on SF-539, 27.2 µM (inactive); with U-251 it was 24.6 µM (inactive); with SK-MEL-2, 26.5 µM (inactive). For the same compound, the GI50 was 30.8 µM (inactive) in the test on Hs-578T and 3.83 µM (inactive) with MDA-N.

Consider `O=C(NCCCCl)c1c(O)c2ccccc2[nH]c1=O`, for which the GI50 with NCI-H522 is > 65.5 µM (inactive); in the test with MOLT-4, > 100 µM (inactive); in the test on HCC 2998 it was > 76.2 µM (inactive); in the test with OVCAR-3 it was > 100 µM (inactive); with NCI/ADR-RES, > 71 µM (inactive); in the test with SNB-75, > 54.5 µM (inactive). In addition, the GI50 with EKVX was 50.6 µM (inactive); in the test with KM12, > 100 µM (inactive); in the test on SK-OV-3, > 80.5 µM (inactive); in the test with NCI-H226, > 100 µM (inactive); with UACC-62 it was > 50.9 µM (inactive); with M14 it was > 100 µM (inactive). The GI50 in the test on T47D was > 73.3 µM (inactive); in the test with COLO 205, > 100 µM (inactive); in the test with LOX IMVI, > 100 µM (inactive); in the test on SF-539, > 54 µM (inactive); with U-251, > 100 µM (inactive); in the test with SK-MEL-2, > 94 µM (inactive). Besides, the GI50 with Hs-578T was > 56.8 µM (inactive); with MDA-N, > 100 µM (inactive).
